Values of other authors in patent US20110250279A1, “CONTROLLED-RELEASE COMPOSITION FOR PRODUCING SUSTAINED-RELEASE PREPARATION CONTAINING UDENAFIL” (Dong-A Pharm. Co., Ltd., priority 2008, published 2011).

Tests used:
PDE-5 = PDE-5 (Homo sapiens, UniProt O76074)
[1] = phase 1 clinical tests (Koreans and Caucasians)
[2] = not given; remark: listed apart in the source

CCCOc1ccc(S(=O)(=O)NCCC2CCCN2C)cc1-c1nc2c(CCC)nn(C)c2c(=O)[nH]1 (stereo not drawn) [Udenafil, 3-(1-methyl-7-oxo-3-propyl-4,7-dihydro-1H-pyrazolo[4,3-d]pyrimidin-5-yl)-N-[2-(1-methylpyrrolidin-2-yl)ethyl]-4-propoxybenzenesulfonamide]
volume of distribution in vivo: large volume of distribution | absorption (in vivo): rapidly absorbed | bioavailability (in vivo): high bioavailability | half life relative to sildenafil or vardenafil (in vivo): about three times longer | inhibitory activity for PDE-5 (PDE-5): strong inhibitory activity | selectivity for PDE-5 (PDE-5): high selectivity | serious abnormal reactions by drugs [1]: did not generate serious abnormal reactions | drug discontinuation rate ([2]; during the clinical tests): lowest | extent and frequency of side effects ([2]; phase 2 and 3 clinical tests, versus conventional oral therapeutic agents for erectile dysfunction): lower
